Reference: patent publication US9149038B2, “4-amino-6-(heterocyclic)picolinates and 6-amino-2-(heterocyclic)pyrimidine-4-carboxylates and their use as herbicides” (Dow AgroSciences LLC, priority 2013, dated 2015)
Like-named read-outs stand apart in the source and are kept apart here.

Experiments:
[1] = system: Key Grass and Sedge Weeds as well as Grass Crops; test: Post-Emergent Test II: postemergent herbicidal activity, visual rating after 14 d (Table 8); format: in vivo; details: post-emergence, 336 h; for pest or weed control at 35 g/ha: 35 g ai/ha; for pest or weed control at 70 g/ha: 70 g ai/ha; for pest or weed control at 140 g/ha: 140 g ai/ha
Summary of the method: (§1)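 Visual scoring at 14 d, 0 (no injury) to 100 (complete kill), relative to untreated plants. Postemergent overhead track-sprayer application, 187 L/ha, at a top rate plus serial ½×–1/16× rates, to plants grown 7–21 d at about 23–29° C day under a 15 h photoperiod, then subirrigated.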

[2] = system: Key Broadleaf Weed and Crop Species; test: Post-Emergent Test II: postemergent herbicidal activity, visual rating after 14 d (Table 7); format: in vivo; details: post-emergence, 336 h; for pest or weed control at 35 g/ha: 35 g ai/ha; for pest or weed control at 70 g/ha: 70 g ai/ha; for pest or weed control at 140 g/ha: 140 g ai/ha
Summary of the method: as §1

[3] = barnyardgrass (Echinochloa crus-galli), read-out: Visual Growth Reduction (%) 14 Days After Application ECHCG
[4] = giant foxtail (Setaria faberi), read-out: Visual Growth Reduction (%) 14 Days After Application SETFA
[5] = maize, corn (Zea mays), read-out: Visual Growth Reduction (%) 14 Days After Application ZEAMX
[6] = rice (Oryza sativa), read-out: Visual Growth Reduction (%) 14 Days After Application ORYSA
[7] = wheat, spring (Triticum aestivum), read-out: Visual Growth Reduction (%) 14 Days After Application TRZAS
[8] = yellow nutsedge (Cyperus esculentus), read-out: Visual Growth Reduction (%) 14 Days After Application CYPES
[9] = lambsquarters (Chenopodium album), read-out: Visual Growth Reduction (%) 14 Days After Application CHEAL
[10] = oilseed rape, canola (Brassica napus), read-out: Visual Growth Reduction (%) 14 Days After Application BRSNN
[11] = redroot pigweed (Amaranthus retroflexus), read-out: Visual Growth Reduction (%) 14 Days After Application AMARE
[12] = sunflower (Helianthus annuus), read-out: Visual Growth Reduction (%) 14 Days After Application HELAN
[13] = velvetleaf (Abutilon theophrasti), read-out: Visual Growth Reduction (%) 14 Days After Application ABUTH
[14] = wild poinsettia (Euphorbia heterophylla), read-out: Visual Growth Reduction (%) 14 Days After Application EPHHL

| Structure (SMILES) | pest or weed control at 35 g/ha [1, 3] [%] | pest or weed control at 70 g/ha [1, 3] [%] | pest or weed control at 140 g/ha [1, 3] [%] | pest or weed control at 35 g/ha [1, 4] [%] | pest or weed control at 70 g/ha [1, 4] [%] | pest or weed control at 140 g/ha [1, 4] [%] | pest or weed control at 35 g/ha [1, 5] [%] | pest or weed control at 70 g/ha [1, 5] [%] | pest or weed control at 140 g/ha [1, 5] [%] | pest or weed control at 35 g/ha [1, 6] [%] | pest or weed control at 70 g/ha [1, 6] [%] | pest or weed control at 140 g/ha [1, 6] [%] | pest or weed control at 35 g/ha [1, 7] [%] | pest or weed control at 70 g/ha [1, 7] [%] | pest or weed control at 140 g/ha [1, 7] [%] | pest or weed control at 35 g/ha [1, 8] [%] | pest or weed control at 70 g/ha [1, 8] [%] | pest or weed control at 140 g/ha [1, 8] [%] | pest or weed control at 35 g/ha [2, 9] [%] | pest or weed control at 70 g/ha [2, 9] [%] | further results |
| --- | --- | --- | --- | --- | --- | --- | --- | --- | --- | --- | --- | --- | --- | --- | --- | --- | --- | --- | --- | --- | --- |
| COC(=O)c1nc(-c2ccc3c(c2)OC(C)(C)O3)c(F)c(N)c1Cl [Compound 8] | 95 to 100 | 95 to 100 | 95 to 100 | 85 to 94 | 95 to 100 | 95 to 100 | 95 to 100 | 95 to 100 | 95 to 100 | 0 to 29 | 0 to 29 | 30 to 44 | 0 to 29 | 30 to 44 | 30 to 44 | 95 to 100 | 95 to 100 | 95 to 100 | 45 to 59 | 75 to 84 | pest or weed control at 140 g/ha [2, 9]: 85 to 94%; pest or weed control at 35 g/ha [2, 10]: 60 to 74%; pest or weed control at 70 g/ha [2, 10]: 60 to 74%; pest or weed control at 140 g/ha [2, 10]: 75 to 84%; pest or weed control at 35 g/ha [2, 11]: 0 to 29%; pest or weed control at 70 g/ha [2, 11]: 45 to 59%; pest or weed control at 140 g/ha [2, 11]: 60 to 74%; pest or weed control at 35 g/ha [2, 12]: 0 to 29%; pest or weed control at 70 g/ha [2, 12]: 45 to 59%; pest or weed control at 140 g/ha [2, 12]: 85 to 94%; pest or weed control at 35 g/ha [2, 13]: 95 to 100%; pest or weed control at 70 g/ha [2, 13]: 95 to 100%; pest or weed control at 140 g/ha [2, 13]: 95 to 100%; pest or weed control at 35 g/ha [2, 14]: 95 to 100%; pest or weed control at 70 g/ha [2, 14]: 95 to 100%; pest or weed control at 140 g/ha [2, 14]: 95 to 100% |
| COC(=O)c1nc(-c2ccc3c(c2)OC(C)O3)c(F)c(N)c1Cl (stereo not drawn) [Compound 20] | 60 to 74 | 75 to 84 | 85 to 94 | 45 to 59 | 75 to 84 | 85 to 94 | 30 to 44 | 45 to 59 | 60 to 74 | 0 to 29 | 30 to 44 | 30 to 44 | 0 to 29 | 0 to 29 | 0 to 29 | 45 to 59 | 75 to 84 | 85 to 94 | 0 to 29 | 30 to 44 | pest or weed control at 140 g/ha [2, 9]: 75 to 84%; pest or weed control at 35 g/ha [2, 10]: 0 to 29%; pest or weed control at 70 g/ha [2, 10]: 0 to 29%; pest or weed control at 140 g/ha [2, 10]: 30 to 44%; pest or weed control at 35 g/ha [2, 11]: 60 to 74%; pest or weed control at 70 g/ha [2, 11]: 95 to 100%; pest or weed control at 140 g/ha [2, 11]: 95 to 100%; pest or weed control at 35 g/ha [2, 12]: 60 to 74%; pest or weed control at 70 g/ha [2, 12]: 75 to 84%; pest or weed control at 140 g/ha [2, 12]: 85 to 94%; pest or weed control at 35 g/ha [2, 13]: 30 to 44%; pest or weed control at 70 g/ha [2, 13]: 60 to 74%; pest or weed control at 140 g/ha [2, 13]: 95 to 100%; pest or weed control at 35 g/ha [2, 14]: 45 to 59%; pest or weed control at 70 g/ha [2, 14]: 85 to 94%; pest or weed control at 140 g/ha [2, 14]: 85 to 94% |
